# Source: article PMC9805530 (European journal of medicinal chemistry, 2022)
# Columns and labels:
# [1] = system: BV2 cells; assay: LPS-induced inflammatory gene mRNA expression; conditions: 30 μM pretreatment 30 minutes, 100 ng/mL LPS 6 hours
# [2] = molecular target: T1, Sirt1 (Homo sapiens, UniProt Q96EB6); conditions: cited from earlier work
# T1 sequence (Q96EB6 1-747): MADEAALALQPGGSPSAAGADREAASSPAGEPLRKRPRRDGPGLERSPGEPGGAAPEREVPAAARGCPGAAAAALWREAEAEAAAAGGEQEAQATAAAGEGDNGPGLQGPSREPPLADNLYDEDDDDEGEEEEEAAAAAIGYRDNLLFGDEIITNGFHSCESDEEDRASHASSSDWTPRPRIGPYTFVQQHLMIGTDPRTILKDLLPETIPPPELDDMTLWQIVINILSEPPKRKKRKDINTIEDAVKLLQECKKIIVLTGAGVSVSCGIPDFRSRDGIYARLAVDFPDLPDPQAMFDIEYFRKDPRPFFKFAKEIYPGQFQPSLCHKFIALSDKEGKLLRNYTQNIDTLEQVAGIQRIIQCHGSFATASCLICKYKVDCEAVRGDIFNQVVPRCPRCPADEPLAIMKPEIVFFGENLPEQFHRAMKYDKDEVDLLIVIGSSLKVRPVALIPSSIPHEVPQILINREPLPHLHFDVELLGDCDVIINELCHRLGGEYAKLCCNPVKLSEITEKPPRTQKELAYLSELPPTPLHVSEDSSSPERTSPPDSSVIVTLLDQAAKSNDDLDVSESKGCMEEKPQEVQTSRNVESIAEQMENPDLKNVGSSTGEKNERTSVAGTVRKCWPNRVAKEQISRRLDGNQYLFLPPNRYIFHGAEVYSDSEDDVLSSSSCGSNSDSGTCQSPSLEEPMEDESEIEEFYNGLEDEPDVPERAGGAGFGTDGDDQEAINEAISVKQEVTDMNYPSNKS
# [3] = molecular target: T2, Sirt2 (Homo sapiens, UniProt Q8IXJ6); conditions: cited from earlier work
# T2 sequence (Q8IXJ6 1-389): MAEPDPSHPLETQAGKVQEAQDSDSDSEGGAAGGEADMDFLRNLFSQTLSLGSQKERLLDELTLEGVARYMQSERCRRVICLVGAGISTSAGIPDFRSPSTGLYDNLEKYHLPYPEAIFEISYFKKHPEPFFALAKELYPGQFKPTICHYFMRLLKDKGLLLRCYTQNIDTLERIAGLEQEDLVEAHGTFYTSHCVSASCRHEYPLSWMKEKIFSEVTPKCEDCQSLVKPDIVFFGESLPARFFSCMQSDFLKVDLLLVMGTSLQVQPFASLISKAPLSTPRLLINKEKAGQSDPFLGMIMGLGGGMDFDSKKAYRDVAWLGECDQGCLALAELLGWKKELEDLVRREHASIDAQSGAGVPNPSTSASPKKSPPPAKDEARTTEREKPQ
# [4] = molecular target: T3, Sirt3 (Homo sapiens, UniProt Q9NTG7); conditions: cited from earlier work
# T3 sequence (Q9NTG7 1-399): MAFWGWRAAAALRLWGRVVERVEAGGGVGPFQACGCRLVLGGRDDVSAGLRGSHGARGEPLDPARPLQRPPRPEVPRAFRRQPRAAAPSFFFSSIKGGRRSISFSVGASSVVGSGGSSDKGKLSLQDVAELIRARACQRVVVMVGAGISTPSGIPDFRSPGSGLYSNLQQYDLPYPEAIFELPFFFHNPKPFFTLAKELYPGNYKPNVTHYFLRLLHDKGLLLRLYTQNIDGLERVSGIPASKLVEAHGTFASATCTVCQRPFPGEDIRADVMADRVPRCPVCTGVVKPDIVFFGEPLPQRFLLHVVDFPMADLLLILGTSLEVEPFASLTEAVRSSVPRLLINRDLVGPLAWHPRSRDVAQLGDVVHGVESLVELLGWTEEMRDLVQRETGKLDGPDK
# [5] = molecular target: T2, Sirt2; assay: Sirt2 deacetylation Activity Assay Kit; conditions: time course, Fig. 3
# [6] = molecular target: T4, Sirt6 (Homo sapiens, UniProt Q8N6T7); assay type: biochemical; conditions: 100 μM, 30 °C, 60 minutes
# T4 sequence (Q8N6T7 whole entry): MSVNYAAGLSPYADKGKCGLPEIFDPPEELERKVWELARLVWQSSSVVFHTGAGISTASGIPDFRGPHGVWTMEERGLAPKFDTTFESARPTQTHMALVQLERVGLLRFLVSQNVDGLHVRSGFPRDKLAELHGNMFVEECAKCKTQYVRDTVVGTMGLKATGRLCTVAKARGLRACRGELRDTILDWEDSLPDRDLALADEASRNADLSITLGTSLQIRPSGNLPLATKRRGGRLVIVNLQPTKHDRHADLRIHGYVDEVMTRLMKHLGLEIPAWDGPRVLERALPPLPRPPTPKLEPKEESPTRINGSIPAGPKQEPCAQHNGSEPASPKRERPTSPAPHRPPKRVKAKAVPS
# [7] = molecular target: T5, Sirt5 (Homo sapiens, UniProt Q9NXA8); assay: Fluorogenic Sirt5 Assay Kit; assay type: biochemical; conditions: 100 μM compounds, 37 °C 30 min
# T5 sequence (Q9NXA8 37-310): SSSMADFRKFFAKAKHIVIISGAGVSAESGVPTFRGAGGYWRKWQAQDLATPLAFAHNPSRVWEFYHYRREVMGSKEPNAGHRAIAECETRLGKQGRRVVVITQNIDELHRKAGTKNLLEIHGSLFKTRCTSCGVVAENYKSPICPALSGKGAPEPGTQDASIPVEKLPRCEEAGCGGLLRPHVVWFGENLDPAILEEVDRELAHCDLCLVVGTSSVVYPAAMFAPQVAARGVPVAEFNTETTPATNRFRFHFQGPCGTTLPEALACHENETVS
# [8] = molecular target: T3, Sirt3; assay: Sirt3 deacetylation Activity Assay Kit; conditions: time course, Fig. 3
# [9] = molecular target: T1, Sirt1; assay: Sirt1 deacetylation Activity Assay Kit; conditions: time course, Fig. 3
# [10] = molecular target: T4, Sirt6; assay: Sirt6-dependent peptide deacetylation, Fluor de Lys; conditions: Fig. 3A
effect on Sirt2 deacetylation activity [5],acetylation of H3K9 in the nucleosome test [6],effect on Sirt5 desuccinylation activity [7],effect on Sirt3 deacetylation activity [8],effect on Sirt1 deacetylation activity [9],effect on Sirt6 activity (time course) [10],Structure (SMILES),LPS-induced expression of IL-1β [1],LPS-induced expression of IL-6 [1],LPS-induced expression of MCP-1 [1],LPS-induced expression of TNFα [1],effect on basal Sirt1 deacetylation activity [2],effect on basal Sirt2 deacetylation activity [3],effect on basal Sirt3 deacetylation activity [4],ICAM-1 induction [1]
,,,,,,"c1cncc(C2Nc3ccccc3-n3cccc32)c1 (stereo not drawn) [UBCS039, reference compound]",strongly inhibited,strongly inhibited,strongly inhibited,strongly inhibited,no obvious effects,no obvious effects,no obvious effects,
no significant effects,significantly decreased,no significant effects,no significant effects,no significant effects,specifically promoted,"CN(C)CCN1CCN(c2ncccc2C2Nc3ccccc3-n3cccc32)CC1 (stereo not drawn) [Compound 38, 2-(4-(3-(4,5-Dihydropyrrolo[1,2-a]quinoxalin-4-yl)pyridin-2-yl)piperazin-1-yl)-N,N-dimethylethan-1-amine]",strongly inhibited,strongly inhibited,strongly inhibited,strongly inhibited,,,,slight inhibition
